Paper PMC9241943, “LcCCL28-25, Derived from Piscine Chemokine, Exhibits Antimicrobial Activity against Gram-Negative and Gram-Positive Bacteria In Vitro and In Vivo” (Microbiology Spectrum, 2022)
In brackets after ≈: the same amount, converted by molar mass. Counter-ions that a name gives are not always drawn. Residues, ends and D or L forms follow the SMILES beside them.

Key:
[1] = tested on: Methicillin-resistant S. aureus USA300; format: cell-based, Staphylococcus aureus; settings: USA300, 2 h
Procedure: (§1) The MIC assays were performed as previously described ([43]). Briefly, peptides were plated in a 2-fold dilution series (50 μL/well) of Mueller-Hinton broth (MHB) in Costar 96-well cell culture plates (Corning, NY, USA). Three repeats were set for each concentration. E. coli ATCC 25922, A. hydrophila ATCC 7966, P. aeruginosa PAO1, P. aeruginosa FRD1, S. aureus ATCC 25923, S. agalactiae ATCC 13813, S. pneumoniae ATCC 49619, methicillin-resistant S. aureus ATCC 43300, and methicillin-resistant S. aureus USA300 were cultured in Luria-Bertani (LB) medium, while K. pneumoniae CMCC46117 was cultured in tryptic soy broth (TSB) medium. Incubation was done at 37°C and 150 × g for 12 h. Bacteria were transferred to fresh MHB at a ratio of 1% (vol/vol) and incubated to reach a logarithmic growth phase. Then, 50 μL of a bacterial suspension at 4 × 10^6 CFU/mL was added to each well. […]

[2] = tested on: Methicillin-resistant S. aureus ATCC 43300; format: cell-based, Staphylococcus aureus; settings: ATCC 43300, 2 h
Procedure: as §1

P. aeruginosa FRD1 = format: cell-based, Pseudomonas aeruginosa; settings: FRD1, 2 h
Procedure: as §1

E. coli ATCC 25922 = experiment: SYTOX green membrane permeability assay; format: cell-based, Escherichia coli; settings: E. coli ATCC 25922, 5 μM SYTOX green, read every 1 min
Procedure: The SYTOX green staining assay was performed to assess peptide-associated membrane damage ([47], [52]). E. coli ATCC 25922 and S. aureus ATCC 25923 cells in the mid-logarithmic phase were collected, washed thrice, and resuspended (5 × 10^7 CFU/mL) in buffer B (10 mM Tris-HCl, pH 7.4, at 25°C). The bacterial suspensions were mixed with 5 μM SYTOX green and incubated for 15 min at room temperature in the dark. Then, the mixtures were added to black, clear-bottom 96-well plates at a density of 100 μL/well. After peptide addition, SYTOX green uptake was monitored using an EnSpire multimode plate reader (PerkinElmer, Singapore) with an excitation wavelength of 485 nm and an emission wavelength of 520 nm. Each measurement interval was 1 min, totaling 30 to 60 times. Melittin was used as the positive control, while bovine serum albumin (BSA) was the negative control.

[3] = tested on: P. aeruginosa FRD1 biofilm; experiment: Biofilm inhibition assay (crystal violet); format: cell-based, Pseudomonas aeruginosa; settings: P. aeruginosa FRD1, 6.25 μg/mL (0.5× MIC), 37°C 24 h, triplicate
Procedure: In vitro static biofilm models have been reported in many studies ([45][–][47]). A Pseudomonas aeruginosa mucoid strain, FRD1, isolated from a cystic fibrosis patient, was used for the biofilm inhibition and eradication assay. The FRD1 strain was shock cultured to logarithmic growth stage at 37°C and 150 × g. After cleaning using PBS and centrifuging thrice, the bacteria were resuspended in MHB medium (with 0.2% glucose) and gradient diluted to an OD600 value of ~0.01.
For the biofilm inhibition assay, 90-μL amounts of bacterial suspensions and 10-μL amounts of increasing concentrations of the peptide were added to a 96-well plate and coincubated at 37°C for 24 h. Then, bacterial biofilms were quantified as follows: (i) planktonic bacteria were removed by washing thrice using PBS, (ii) biofilm bacteria were fixed in 100 μL of 4% paraformaldehyde at room temperature for 15 min and (iii) stained with 100 μL of 0.1% crystal violet for 30 min, (iv) the dye was removed, followed by washing twice using PBS, adding 200 μL of 95% ethanol to each well to dissolve the crystal violet, and finally, (v) absorbance was measured at 590 nm using an EnSpire multimode plate reader (PerkinElmer, Singapore).

[4] = tested on: Streptococcus agalactiae ATCC 13813; format: cell-based; settings: ATCC 13813, 2 h
Procedure: as §1

[5] = tested on: Streptococcus pneumoniae ATCC 49619; format: cell-based; settings: ATCC 49619, 2 h
Procedure: as §1

[6] = tested on: Escherichia coli ATCC 25922; format: cell-based; settings: ATCC 25922, 2 h
Procedure: as §1

[7] = tested on: Klebsiella pneumoniae CMCC46117; format: cell-based; settings: CMCC46117, 2 h
Procedure: as §1

[8] = tested on: Aeromonas hydrophila ATCC 7966; format: cell-based; settings: ATCC 7966, 2 h
Procedure: as §1

[9] = tested on: Staphylococcus aureus ATCC 25923; format: cell-based; settings: ATCC 25923, 2 h
Procedure: as §1

[10] = tested on: Pseudomonas aeruginosa PAO1; format: cell-based; settings: PAO1, 2 h
Procedure: as §1

[11] = tested on: methicillin-resistant S. aureus standard strain USA300; experiment: Neutropenic mouse thigh infection model; format: in vivo; settings: neutropenic BALB/c mice, 300 μg i.p. at 2 h postinfection
Procedure: Female BALB/c mice were used to construct a neutropenic murine thigh infection model as previously published ([48][–][50]). Briefly, mice (n = 9/group) were rendered neutropenic by consecutive intraperitoneal injections of 150 and 100 mg/kg of body weight cyclophosphamide at 4 and 1 day before bacterial injection ([51]). An S. aureus USA300 inoculum (~1.5 × 10^6 CFU/mL) was prepared by diluting logarithmic phase bacteria with fresh MHB. Each mouse was infected by intramuscular injection of 0.1 mL of the inoculum (~1.5 × 10^5 CFU) into the right thigh muscles. At 2 h postinfection, 0.1 mL of lcCCL28-25 peptide (300 μg) or vancomycin hydrochloride (300 μg, 15 mg/kg) was administered by intraperitoneal injection. The control group was injected with an equal volume of PBS. Untreated control mice were sacrificed at the start of treatment to establish the baseline bacterial burden. Mice in the three treatment groups (PBS, vancomycin, and lcCCL28-25) were sacrificed at 48 h postinfection. Their right thighs were aseptically harvested, placed in sterile saline and homogenized using a Bioprep-6 homogenizer (Allsheng, Hangzhou, China). After being serially diluted to 1:10 in sterile saline, 100-μL amounts of tissue suspensions at various concentrations were plated on LB agar to determine bacterial counts after incubation at 37°C for 24 h.

[12] = data not shown

Structure (SMILES)	MIC [1]	MIC [2]	MIC (P. aeruginosa FRD1)	SYTOX green fluorescence intensity (E. coli ATCC 25922)	reduction of biofilm formation [3]	MIC [4]	MIC [5]	MIC [6]	MIC [7]	MIC [8]	MIC [9]	MIC [10]	reduction in average bacterial load in thighs versus control group ([11]; S. aureus USA300 i.m., 48 h postinfection)	mice that died after 48 h of infection ([11]; n = 9/group, three died in PBS group)	solubility in 50% TFE solution [12]
CC[C@H](C)[C@H](NC(=O)[C@H](CCC(N)=O)NC(=O)[C@H](CCSC)NC(=O)[C@H](C)NC(=O)[C@@H](NC(=O)CNC(=O)[C@H](CC(C)C)NC(=O)[C@@H](NC(=O)[C@H](CCCCN)NC(=O)[C@H](CCCCN)NC(=O)[C@@H](NC(=O)[C@H](CCCNC(=N)N)NC(=O)[C@@H]1CCCN1C(=O)[C@H](CC(=O)O)NC(=O)[C@H](C)N)C(C)C)C(C)C)C(C)C)C(=O)N[C@@H](CCCNC(=N)N)C(=O)N[C@@H](CCCCN)C(=O)N[C@@H](C)C(=O)N[C@@H](CCC(N)=O)C(=O)N[C@@H](CC(C)C)C(=O)N[C@@H](CCSC)C(=O)N[C@@H](CCCNC(=N)N)C(=O)N[C@@H](CCC(=O)O)C(=O)N[C@@H](CCCCN)C(=O)N[C@@H](CC(C)C)C(=O)N[C@@H](CC(N)=O)C(=O)N[C@@H](CO)C(=O)N[C@H](C(=O)N[C@@H](CCSC)C(=O)N[C@@H](CCCNC(=N)N)C(=O)N[C@@H](CCCNC(=N)N)C(=O)O)[C@@H](C)CC [omCK11-31] (H-ADPRVKKVLGVAMQIRKAQLMREKLNSIMRR-OH; N-terminus and C-terminus assumed)	12.50 µg/mL (≈ 3.44 µM)	12.50 µg/mL (≈ 3.44 µM)	12.50 µg/mL (≈ 3.44 µM)	fluorescence trends similar to the trends in E. coli cells treated with lcCCL28-25	~ 45%	12.50 µg/mL (≈ 3.44 µM)	12.50 µg/mL (≈ 3.44 µM)	12.50 µg/mL (≈ 3.44 µM)	25.00 µg/mL (≈ 6.87 µM)	>50.00 µg/mL	12.50 µg/mL (≈ 3.44 µM)	25.00 µg/mL (≈ 6.87 µM)	–	–	–
CN[C@H](CC(C)C)C(=O)N[C@H]1C(=O)N[C@@H](CC(N)=O)C(=O)N[C@H]2C(=O)N[C@H]3C(=O)N[C@H](C(=O)N[C@H](C(=O)O)c4cc(O)cc(O)c4-c4cc3ccc4O)[C@H](O)c3ccc(c(Cl)c3)Oc3cc2cc(c3O[C@@H]2O[C@H](CO)[C@@H](O)[C@H](O)[C@H]2O[C@H]2C[C@](C)(N)[C@H](O)[C@H](C)O2)Oc2ccc(cc2Cl)[C@H]1O [vancomycin, vancomycin hydrochloride, reference compound]	–	–	–	–	–	–	–	–	–	–	–	–	1.30 log10 CFU/g	none	–
CSCC[C@H](NC(=O)[C@H](CCCNC(=N)N)NC(=O)[C@H](CCCCN)NC(=O)[C@H](CC(C)C)NC(=O)[C@H](CCCCN)NC(=O)[C@H](CCCNC(=N)N)NC(=O)[C@H](CCCCN)NC(=O)[C@@H](NC(=O)[C@H](CCCCN)NC(=O)[C@@H]1CCCN1C(=O)[C@H](Cc1c[nH]cn1)NC(=O)[C@H](C)N)C(C)C)C(=O)N[C@@H](CCC(N)=O)C(=O)N[C@@H](CCCNC(=N)N)C(=O)N[C@@H](CCCCN)C(=O)N[C@@H](CCCCN)C(=O)N[C@@H](CC(=O)O)C(=O)NCC(=O)N[C@@H](CCCCN)C(=O)N[C@@H](CCC(N)=O)C(=O)N[C@@H](CCCCN)C(=O)N[C@@H](CCCNC(=N)N)C(=O)N[C@@H](Cc1c[nH]cn1)C(=O)O [omCCL28-like-23] (H-AHPKVKRKLKRMQRKKDGKQKRH-OH; N-terminus and C-terminus assumed)	12.50 µg/mL (≈ 4.34 µM)	25.00 µg/mL (≈ 8.67 µM)	25.00 µg/mL (≈ 8.67 µM)	increased rapidly within 20 min	–	12.50 µg/mL (≈ 4.34 µM)	25.00 µg/mL (≈ 8.67 µM)	12.50 µg/mL (≈ 4.34 µM)	>50.00 µg/mL	>50.00 µg/mL	12.50 µg/mL (≈ 4.34 µM)	25.00 µg/mL (≈ 8.67 µM)	–	–	insoluble
